According to US7790709B2 (dated 2010):

For `CN(Cc1cc2ccccc2n1C)C(=O)/C=C/c1ccc(N2C(=O)CCC2=O)nc1`, the melting point was 185 to 187 °C.
With `CN(Cc1cc2ccccc2n1C)C(=O)/C=C/c1ccc(NC(=O)CCC(N)=O)nc1` the melting point was 225 to 227 °C.
In the case of `CN(Cc1cc2ccccc2n1C)C(=O)/C=C/c1ccc(NC(=O)CCC(=O)N2CCOCC2)nc1`, the melting point is reported as 206 to 209 °C (dec.).
